Measurements taken from patent US9163008B2, “Pyrimidines as sodium channel blockers” (Purdue Pharma, L.P., priority 2011, dated 2015).
Like-named read-outs stand apart in the source and are kept apart here.

Legend:
human Nav1.7 = human Nav1.7 (Homo sapiens (Human), UniProt Q15858); assay: FLIPR sodium dye assay (CoroNa Green) with KCl and test article pre-incubation; format: cell-based; settings: read-out: Nav1.7 Activity FLIPR assay IC50
hNav1.7 = hNav1.7 (Homo sapiens (Human), UniProt Q15858); assay: Electrophysiology (EP) whole-cell patch clamp assay; format: cell-based; settings: for Ki: read-out: Nav1.7 Activity EP assay Ki; for Kd: resting block dissociation constant, read-out: Nav1.7 Activity EP assay Kr
Protocol: The hNav1.7 expressing HEK-293 cells were plated on 35 mm culture dishes pre-coated with poly-D-lysine in standard DMEM culture media (Mediatech, Inc., Herndon, Va.) and incubated in a 5% CO2 incubator at 37° C. Cultured cells were used approximately 12-48 h after plating.
On the day of experimentation, the 35 mm dish was placed on the stage of an inverted microscope equipped with a perfusion system that continuously perfuses the culture dish with fresh recording media. A gravity driven superfusion system was used to apply test solutions directly to the cell under evaluation. This system consists of an array of glass pipette glass connected to a motorized horizontal translator. The outlet of the shooter was positioned approximately 100 μm from the cell of interest.
Gigaseals were formed and the whole-cell configuration was established in voltage clamp mode, and membrane currents generated by hNav1.7 were recorded in gap-free mode. […] Signals were sampled at 50 kHz and low pass filtered at 3 kHz.
To determine a membrane potential at which the majority of channels are in the resting state, a standard steady-state inactivation (SSIN) protocol was run using 100 ms prepulses×10 mV depolarizing steps. The holding potential for testing resting block (Vh1) was 20 mV more hyperpolarized than the first potential where inactivation is observed with the inactivation protocol.
From this holding potential a standard I-V protocol was run to determine the potential at which the maximal current (Imax) was elicited. This potential was the test potential (Vt).
The fractional response was calculated as follows: FR=I(after drug)/I(control),
where I is the peak current amplitude and was used for estimating resting block dissociation constant, Kr: Kr=[drug]*{FR/(1−FR)},
To assess the block of inactivated channels the holding potential was depolarized such that 20-50% of the current amplitude was reduced when pulsed to the same Vt as above. The magnitude of this depolarization depends upon the initial current amplitude and the rate of current loss due to slow inactivation. This was the second holding potential (Vh2). The current reduction was recorded to determine the fraction of available channels at this potential (h). h=I@Vh2/Imax.
At this membrane voltage a proportion of channels are in the inactivated state, and thus inhibition by a blocker includes interaction with both resting and inactivated channels.
To determine the potency of the test compound on inactivated channels, a series of currents were elicited by 10 ms voltage steps from Vh2 to Vt every 10-15 seconds. After establishing a stable baseline, the low concentration of the compound was applied. Multiple cumulative concentrations may have to be applied to identify a concentration that will block between 40-60% of the current. Washout was attempted to re-establish baseline. Fractional responses were measured with respect to a projected baseline to determine Kapp. Kapp=[drug]*{FR/(1−FR)},
This Kapp value, along with the calculated Kr and h values, were used to calculate the affinity of the compound for the inactivated channels (Ki) using the following equation: Ki=(1−h)/((1/Kapp)−(h/Kr)).
Vehicle solution used to establish base line was also contacting 0.3% DMSO.
Data was analyzed off-line using Clampfit software (pClamp, v. 8; Axon Instruments) and graphed using GraphPad Prizm (v. 4.0 or higher) software.

[1] = tested on: SNL-induced mechanical hyperalgesia; assay: SNL-induced mechanical hyperalgesia model (paw pressure test); format: in vivo, rat; settings: rats, dosed orally at 100 mg/kg, vehicle 0.5% methyl cellulose, one hour before testing
Protocol: In the Chung model, the spinal nerve ligation (SNL) model of neuropathic pain is used to produce mechanical hyperalgesia, thermal hyperalgesia, and tactile allodynia in rats. Surgery is performed under isoflurane/O2 inhalation anesthesia. Following induction of anesthesia a 3 cm incision is made and the left paraspinal muscles are separated from the spinous process at the L4-S2 levels. The L6 transverse process is carefully removed with a pair of small rongeurs to identify visually the L4-L6 spinal nerves. The left L5 (or L5 and L6) spinal nerve(s) is (are) isolated and tightly ligated with silk thread. […] The animals can also be assessed for response to noxious thermal stimuli or for tactile allodynia, as described below. […] Sensitivity to noxious mechanical stimuli was measured in animals using the paw pressure test to assess mechanical hyperalgesia. In rats, hind paw withdrawal thresholds (“PWT”), measured in grams, in response to a noxious mechanical stimulus were determined using an analgesymeter (Model 7200, commercially available from Ugo Basile of Italy), as described in Stein (Biochemistry & Behavior 31: 451-455 (1988)). […] PWT was determined once for each rat at each time point. PWT can be measured only in the injured paw, or in both the injured and non-injured paw. […]

[2] = affinity for inactivated channels, hNav1.7 HEK-293

Sequence of human Nav1.7 (Q15858 other isoform, or with tags, fused parts or gaps): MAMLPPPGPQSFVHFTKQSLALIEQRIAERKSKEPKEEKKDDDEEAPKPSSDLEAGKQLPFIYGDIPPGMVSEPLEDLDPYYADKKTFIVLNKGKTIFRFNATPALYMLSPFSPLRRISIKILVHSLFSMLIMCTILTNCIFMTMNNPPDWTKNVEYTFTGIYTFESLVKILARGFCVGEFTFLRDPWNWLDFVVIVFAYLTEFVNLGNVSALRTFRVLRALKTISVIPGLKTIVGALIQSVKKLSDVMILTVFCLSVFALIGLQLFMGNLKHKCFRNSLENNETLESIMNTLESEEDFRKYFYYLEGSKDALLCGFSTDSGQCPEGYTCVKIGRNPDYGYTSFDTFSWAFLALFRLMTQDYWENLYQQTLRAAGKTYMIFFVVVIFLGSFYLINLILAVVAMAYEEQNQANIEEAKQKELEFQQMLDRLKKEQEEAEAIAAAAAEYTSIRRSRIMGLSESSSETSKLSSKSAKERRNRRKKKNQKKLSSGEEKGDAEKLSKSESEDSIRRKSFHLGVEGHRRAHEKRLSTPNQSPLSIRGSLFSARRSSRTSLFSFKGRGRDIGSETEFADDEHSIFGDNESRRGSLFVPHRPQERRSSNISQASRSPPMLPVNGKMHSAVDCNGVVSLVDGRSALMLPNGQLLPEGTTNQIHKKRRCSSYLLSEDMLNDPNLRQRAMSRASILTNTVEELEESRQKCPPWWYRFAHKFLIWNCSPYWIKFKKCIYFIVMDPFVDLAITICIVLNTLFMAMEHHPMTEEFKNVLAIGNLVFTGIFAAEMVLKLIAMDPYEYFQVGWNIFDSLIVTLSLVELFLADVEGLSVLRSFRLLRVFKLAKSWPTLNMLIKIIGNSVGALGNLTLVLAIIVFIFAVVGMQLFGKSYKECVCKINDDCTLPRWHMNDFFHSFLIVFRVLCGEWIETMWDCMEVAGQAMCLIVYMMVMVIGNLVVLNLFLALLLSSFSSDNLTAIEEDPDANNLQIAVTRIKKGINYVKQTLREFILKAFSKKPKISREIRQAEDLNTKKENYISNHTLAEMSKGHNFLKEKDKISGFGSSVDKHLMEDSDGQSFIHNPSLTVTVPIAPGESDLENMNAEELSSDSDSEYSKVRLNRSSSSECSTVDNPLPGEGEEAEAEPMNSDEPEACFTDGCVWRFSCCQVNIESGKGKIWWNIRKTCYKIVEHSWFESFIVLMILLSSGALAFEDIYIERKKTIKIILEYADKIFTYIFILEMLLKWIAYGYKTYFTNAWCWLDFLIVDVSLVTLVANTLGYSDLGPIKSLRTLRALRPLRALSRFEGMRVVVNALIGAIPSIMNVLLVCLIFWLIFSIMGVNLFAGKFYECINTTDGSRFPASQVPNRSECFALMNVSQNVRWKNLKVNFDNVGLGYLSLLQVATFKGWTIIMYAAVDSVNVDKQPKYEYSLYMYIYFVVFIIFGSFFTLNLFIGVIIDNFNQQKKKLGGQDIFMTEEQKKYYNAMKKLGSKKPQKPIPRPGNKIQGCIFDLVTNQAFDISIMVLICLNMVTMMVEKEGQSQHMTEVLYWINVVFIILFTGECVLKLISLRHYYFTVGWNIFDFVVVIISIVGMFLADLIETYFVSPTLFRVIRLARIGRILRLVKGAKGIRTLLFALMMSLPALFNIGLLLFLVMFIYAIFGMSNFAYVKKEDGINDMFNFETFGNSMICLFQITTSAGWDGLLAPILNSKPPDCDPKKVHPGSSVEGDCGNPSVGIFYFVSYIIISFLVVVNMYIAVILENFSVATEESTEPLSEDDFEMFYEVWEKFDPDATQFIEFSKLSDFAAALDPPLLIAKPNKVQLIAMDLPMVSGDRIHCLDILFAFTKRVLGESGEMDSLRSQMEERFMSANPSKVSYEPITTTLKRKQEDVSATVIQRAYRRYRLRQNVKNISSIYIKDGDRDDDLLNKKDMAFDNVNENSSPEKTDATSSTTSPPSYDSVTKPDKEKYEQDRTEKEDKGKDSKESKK
Sequence of hNav1.7 (Q15858 other isoform, or with tags, fused parts or gaps): as above

Q: With `C[C@H](Nc1cc(C(N)=O)nc(-c2ccc(Oc3ccc(Cl)cn3)cc2)n1)C(N)=O` [Cpd No. 63, (S)-6-((1-amino-1-oxopropan-2-yl)amino)-2-(4-((5-chloropyridine-2-yl)oxy)phenyl)pyrimidine-4-carboxamide] as the molecule, how does the IC50 (human Nav1.7) read?
A: 790 nM

Q: And the Ki (hNav1.7; [2])?
A: 600 nM

Q: What about the Kd (hNav1.7; hNav1.7 HEK-293) of the same molecule?
A: 28000 nM

Q: `C[C@H](Nc1cc(C(N)=O)nc(-c2ccc(Oc3ccc(C(F)(F)F)cn3)cc2)n1)C(N)=O` [Cpd No. 13, (S)-6-((1-amino-1-oxopropan-2-yl)amino)-2-(4-((5-(trifluoromethyl)pyridin-2-yl)oxy)phenyl)pyrimidine-4-carboxamide] was tested. Which IC50 (human Nav1.7) did it give?
A: 990 nM

Q: What about the Ki (hNav1.7; [2]) of the same molecule?
A: 420 nM

Q: And the Kd (hNav1.7; hNav1.7 HEK-293)?
A: 169000 nM

Q: `C[C@H](Nc1cc(C(N)=O)nc(-c2ccc(Oc3ccc(Cl)cc3F)cc2)n1)C(N)=O` [Cpd No. 64, (S)-6-((1-amino-1-oxopropan-2-yl)amino)-2-(4-(4-chloro-2-fluorophenoxy)phenyl)pyrimidine-4-carboxamide] was tested. Which IC50 (human Nav1.7) did it give?
A: 180 nM

Q: And the Ki (hNav1.7; [2])?
A: 16 nM

Q: And the Kd (hNav1.7; hNav1.7 HEK-293)?
A: 730 nM

Q: For `NC(=O)c1cc(N2CCC[C@H]2C(N)=O)nc(-c2ccc(Oc3ccc(F)cc3)cc2)n1` [Cpd No. 5, (S)-6-(2-carbamoylpyrrolidin-1-yl)-2-(4-(4-fluorophenoxy)phenyl)pyrimidine-4-carboxamide], which IC50 (human Nav1.7) is on record?
A: 260 nM

Q: What about the Ki (hNav1.7; [2]) of the same molecule?
A: 78 nM

Q: And the Kd (hNav1.7; hNav1.7 HEK-293)?
A: 7950 nM

Q: How did the “SNL-induced mechanical hyperalgesia (paw withdrawal threshold)” value [1] turn out when `C[C@H](Nc1cc(C(N)=O)nc(-c2ccc(Oc3ccc(OC(F)(F)F)cc3)cc2)n1)C(N)=O` [Cpd No. 84, (S)-6-((1-amino-1-oxopropan-2-yl)amino)-2-(4-(4-(trifluoromethoxy)phenoxy)phenyl)pyrimidine-4-carboxamide] was run?
A: reduced SNL-induced mechanical hyperalgesia

Q: What does the source list for `C[C@H](Nc1cc(C(=O)O)nc(-c2ccc(Oc3ccc(F)cc3)cc2)n1)C(=O)O` [Cpd No. 40, (S)-6-((1-carboxyethyl)amino)-2-(4-(4-fluorophenoxy)phenyl)pyrimidine-4-carboxylic acid]?
A: IC50 (human Nav1.7; recombinant human Nav1.7 in HEK293, veratridine and scorpion venom agonists): > 20000 nM; Ki (hNav1.7; [2]): 41000 nM; Kd (hNav1.7; hNav1.7 HEK-293): 110000 nM

Q: Which IC50 (human Nav1.7) does the source give for `NC(=O)c1cc(N[C@H]2CCNC2=O)nc(-c2ccc(Oc3ccc(C(F)(F)F)cn3)cc2)n1` [compound 99, (S)-6-((2-oxopyrrolidin-3-yl)amino)-2-(4-((5-(trifluoromethyl)pyridin-2-yl)oxy)phenyl)pyrimidine-4-carboxamide] here?
A: 570 nM

Q: What about the Ki (hNav1.7; [2]) of the same molecule?
A: 83 nM

Q: What about the Kd (hNav1.7; hNav1.7 HEK-293) of the same molecule?
A: 4650 nM

Q: What about the “SNL-induced mechanical hyperalgesia (paw withdrawal threshold)” value [1] of the same molecule?
A: reduced SNL-induced mechanical hyperalgesia

Q: For `C[C@@H](Nc1cc(C(N)=O)nc(-c2ccc(Oc3ccc(F)cc3)cc2)n1)C(N)=O` [Cpd No. 21, (R)-6-((1-amino-1-oxopropan-2-yl)amino)-2-(4-(4-fluorophenoxy)phenyl)pyrimidine-4-carboxamide], which IC50 (human Nav1.7) is on record?
A: 600 nM

Q: And the Ki (hNav1.7)?
A: 230 nM

Q: What about the Kd (hNav1.7; hNav1.7 HEK-293) of the same molecule?
A: 7250 nM

Q: For `C[C@H](Nc1cc(C(N)=O)nc(-c2ccc(Oc3ccc(F)cc3)cc2)n1)C(N)=O` [Cpd No. 1, (S)-6-((1-amino-1-oxopropan-2-yl)amino)-2-(4-(4-fluorophenoxy)phenyl)pyrimidine-4-carboxamide], which IC50 (human Nav1.7) is on record?
A: 420 nM

Q: What about the Ki (hNav1.7) of the same molecule?
A: 57 nM

Q: What about the Kd (hNav1.7; hNav1.7 HEK-293) of the same molecule?
A: 4220 nM
